pIC50: −log10 of the molar value.
Assays:
[1] = tested on: human renal cancer cell line 786-O; assay: Subcutaneous transplantation model of 786-O, E7820 and Compound A; format: in vivo, nude mice; conditions: E7820 100 mg/kg twice a day, Compound A 100 mg/kg once a day, oral, 2 weeks; alone or combined
Procedure: Human renal cancer cell line 786-O (purchased from ATCC) was cultured in RPMI1640 (containing 10% FBS) to about 80% confluency in a 5% carbon dioxide incubator, and the cells were collected by trypsin-EDTA. The cells were diluted with 50% Matrigel-containing phosphate buffer to prepare a 1×10^8 cells/mL suspension, and the resulting cell suspension was subcutaneously transplanted in 0.1 mL volumes to nude mice at the side of their body. Starting from 7 days after the transplantation, E7820 (100 mg/kg, given twice a day for 2 weeks) and 4-(3-chloro-4-(cyclopropylaminocarbonyl)aminophenoxy)-7-methoxy-6-quinolinecarboxamide (100 mg/kg, given once a day for 2 weeks) were administered alone or in combination by the oral route. Tumor long and short axes were measured with a digimatic caliper (Mitsutoyo) and used to calculate both tumor volume and relative tumor volume according to the following equations. Tumor volume TV=tumor long axis(mm)×tumor short axis^2(mm^2)/2 Relative tumor volume RTV=tumor volume at the day of measurement/tumor volume at the first day of administration

[2] = tested on: human colon cancer cell line Colo320DM; assay: Subcutaneous transplantation model of Colo320DM, E7070 and bevacizumab; format: in vivo, nude mice; conditions: E7070 40 mg/kg/day i.v. Day 1-5, bevacizumab 25 mg/kg/day i.v. Days 1, 5, 8, 12; for Relative tumor volume (RTV) Mean ± SD: at Day 23; for Tx4 Mean ± SD: time for tumor to grow 4-fold of initial volume
Procedure: Human colon cancer cell line Colo320DM (purchased from ATCC) was cultured in RPMI1640 (containing 10% FBS) to about 80% confluency in a 5% carbon dioxide incubator, and the cells were collected by trypsin-EDTA. The cells were diluted with Hanks balanced solution to prepare a 5×10^7 cells/ml suspension, and the resulting cell suspension was subcutaneously transplanted in 0.1 mL volumes to nude mice at the side of their body.
After the transplantation, from the time point when the mean tumor volume reached 259 mm^3, E7070 (40 mg/kg/day) and bevacizumab (25 mg/kg/day) were administered alone or in combination.
E7070 alone was administered once a day for 5 days (Day 1 to Day 5) by the intravenous route. Bevacizumab alone was administered twice a week for 2 weeks (Days 1, 5, 8 and 12) by the intravenous route.
The co-treated group was administered with E7070 at Day 1 to Day 5 by the intravenous route and with bevacizumab at Days 1, 5, 8 and 12 by the intravenous route.
After starting the administration, tumor long and short axes were measured at a frequency of twice a week with a digimatic caliper (Mitsutoyo) and used to calculate the tumor volume according to the following equation. Tumor volume TV=tumor long axis(mm)×tumor short axis^2(mm^2)/2
For determination of the anti-tumor effect, the values of the following two parameters were used.
Tx4: Time (days) required for a tumor to grow 4-fold of the initial tumor volume
RTV: Relative tumor volume (RTV) at Day 23* • * RTV=tumor volume at Day 23/initial tumor volume at Day 1
Likewise, if the co-treated group produces a higher anti-tumor effect than the groups treated with either drug alone and has a significance level of 0.05<P<0.10, E7070 and bevacizumab are determined to have a synergistic tendency.

HCT116-C9 = assay: Cell growth inhibition assay (MTT method), cross resistance study; format: cell-based, human; conditions: Example 5, HCT116-C9, 72 hours, read-out: antiproliferative activity IC50
Description: E7070-resistant sub-clonal cell lines were used to evaluate the antiproliferative activity of E7820, LY186641, LY295501, LY-ASAP and CQS. HCT116-C9 was a sub-clone separated from the human colon cancer cell line HCT116 (American Type Culture Collection, Manassas, Va., U.S.A.), while HCT116-C9-C1 and HCT116-C9-C4 were E7070-resistant sub-clonal cell lines obtained by culturing this HCT116-C9 in the presence of gradually increasing concentrations of E7070 (Molecular Cancer Therapeutics, 2002, 1, 275-286).
These 3 cell lines HCT116-C9, HCT116-C9-C1 and HCT116-C9-C4 were each seeded at 3000 cells/well in 96-well microplates (flat-bottomed) (50 μl/well). After 24 hours, a 3-fold dilution series of each compound was added (50 μl/well). After 72 hours, the cell growth inhibitory activity was evaluated by the MTT method (Mossmann T., J. Immunol. Methods, 1983, 65, 55-63). The least squares method was used to determine the 50% growth inhibitory concentration of each compound against each cancer cell line.
Exactly the same procedure as used in Example 4 was repeated to evaluate the antiproliferative activity of both LY573636 and E7070 using E7070-resistant sub-clonal cell lines.

[3] = tested on: Human umbilical vein endothelial cells; assay: VEGF-induced cell proliferation in vascular endothelial cell proliferation assay (in vitro); format: cell-based; conditions: 3 days, absorbance relative to untreated cells
Procedure: Human umbilical vein endothelial cells were suspended in 2% FBS-containing Human endothelial-SFM Basal Growth Medium (Invitrogen Corporation) and adjusted to 1×10^4 cells/ml. The resulting cell suspension was dispensed in 100 μl aliquots into each well of 96-well plates and cultured at 37° C. in a 5% carbon dioxide incubator. On the next day, a solution containing E7820, a solution containing bevacizumab (Avastin®, purchased from Genentech), and a solution containing both E7820 and bevacizumab were respectively diluted with Human endothelial-SFM Basal Growth Medium containing 20 ng/ml VEGF (Genzyme Techne Corp.) and 2% FBS. The resulting diluted solutions were then added to the individual wells of the plates in a volume of 100 μl/well, followed by further culturing.
The combined effect was calculated according to the equation of Chou et al. (Adv. Enzyme Regul., 22, 27-55, 1984).

[4] = tested on: human colon cancer cell line Colo320DM; assay: Subcutaneous transplantation model of Colo320DM, E7820 and bevacizumab; format: in vivo, nude mice; conditions: E7820 200 mg/kg twice a day oral 3 weeks; bevacizumab 25 mg/kg twice a week intravenous 3 weeks; alone or combined
Procedure: Human colon cancer cell line Colo320DM (purchased from Dainippon Pharmaceutical Co., Ltd., Japan) was cultured at 37° C. in RPMI1640 (containing 10% FBS) to about 80% confluency in a 5% carbon dioxide incubator, and the cells were collected by trypsin-EDTA. The cells were diluted with 50% Matrigel-containing phosphate buffer to prepare a 5×10^7 cells/mL suspension, and the resulting cell suspension was subcutaneously transplanted in 0.1 mL volumes to nude mice at the side of their body. Starting from 7 days after the transplantation, E7820 (200 mg/kg, given twice a day for 3 weeks by the oral route) and bevacizumab (25 mg/kg, given twice a week for 3 weeks by the intravenous route) were administered. Tumor long and short axes were measured with a digimatic caliper (Mitsutoyo) and used to calculate both tumor volume and relative tumor volume according to the following equations. Tumor volume TV=tumor long axis(mm)×tumor short axis^2(mm^2)/2 Relative tumor volume RTV=tumor volume at the day of measurement/tumor volume at the first day of administration

[5] = compound concentration 0.0006 μg/μl
[6] = compound concentration 0.0012 μg/μl
[7] = compound concentration 0.0024 μg/μl
[8] = compound concentration 0.0049 μg/μl
[9] = compound concentration 0.0098 μg/μl
[10] = compound concentration 0.0195 μg/μl
[11] = compound concentration 0.0391 μg/μl
[12] = compound concentration 0.0781 μg/μl
[13] = compound concentration 0.1563 μg/μl
[14] = compound concentration 0.3125 μg/μl
[15] = compound concentration 0.6250 μg/μl
[16] = compound concentration 1.2500 μg/μl
[17] = compound concentration 2.5000 μg/μl
[18] = compound concentration 5.0000 μg/μl
[19] = compound concentration 10.0000 μg/μl
[20] = compound concentration 20.0000 μg/μl
[21] = compound concentration 40.0000 μg/μl

| Compound | Relative tumor volume at Day 22 Mean ± SD [1] | Relative tumor volume (RTV) Mean ± SD [2] | Tx4 Mean ± SD [2] [days] | % of control [3, 5] | % of control [3, 6] | % of control [3, 7] | % of control [3, 8] | % of control [3, 9] | % of control [3, 10] | % of control [3, 11] | % of control [3, 12] | % of control [3, 13] | % of control [3, 14] | % of control [3, 15] | % of control [3, 16] | % of control [3, 17] | % of control [3, 18] | % of control [3, 19] | % of control [3, 20] | % of control [3, 21] | also measured |
| --- | --- | --- | --- | --- | --- | --- | --- | --- | --- | --- | --- | --- | --- | --- | --- | --- | --- | --- | --- | --- | --- |
| COc1cc2nccc(Oc3ccc(NC(=O)NC4CC4)c(Cl)c3)c2cc1C(N)=O [Compound A, 4-(3-chloro-4-(cyclopropylaminocarbonyl)aminophenoxy)-7-methoxy-6-quinolinecarboxamide] | 0.59 ± 0.12 | – | – | – | – | – | – | – | – | – | – | – | – | – | – | – | – | – | – | – | – |
| NS(=O)(=O)c1ccc(S(=O)(=O)Nc2cccc3c(Cl)c[nH]c23)cc1 [E7070, N-(3-chloro-1H-indol-7-yl)-4-sulfamoylbenzenesulfonamide] | – | 2.70 ± 0.97 | 27.0 ± 3.4 | – | – | – | – | – | – | – | – | – | – | – | – | – | – | – | – | – | pIC50 (HCT116-C9): 6.90 |
| Cc1ccc(NS(=O)(=O)c2cccc(C#N)c2)c2[nH]cc(C#N)c12 [E7820, N-(3-cyano-4-methyl-1H-indol-7-yl)-3-cyanobenzenesulfonamide] | 0.80 ± 0.13 | – | – | 98.9 % of control | 102.2 % of control | 104.8 % of control | 99.4 % of control | 97.2 % of control | 88.9 % of control | 87.9 % of control | 72.3 % of control | 60.5 % of control | 56.2 % of control | 57.2 % of control | 47.8 % of control | 41.4 % of control | 37.4 % of control | 34.4 % of control | 33.1 % of control | 12.5 % of control | – |
| Bevacizumab: human anti-VEGF (vascular endothelial growth factor) monoclonal antibody, purchased from Genentech under the name Avastin [reference compound] | – | 2.84 ± 0.68 | 26.3 ± 2.8 | 96.0 % of control | 94.2 % of control | 89.5 % of control | 88.3 % of control | 80.8 % of control | 78.8 % of control | 71.0 % of control | 68.5 % of control | 64.2 % of control | 62.0 % of control | 60.1 % of control | 56.1 % of control | 51.8 % of control | 54.8 % of control | 53.2 % of control | 50.4 % of control | 51.7 % of control | Relative tumor volume at Day 22 Mean ± SD [4]: 5.1 ± 0.8 |
